Data: patent US11098040B2, “Compounds and methods of use” (Ferro Therapeutics, Inc., priority 2018, dated 2021)
Values joined by “and” are separate entries in the source; they are usually repeats but may differ in a detail not shown here. Equal values may be shown once. Read-outs that look alike come from different tables or passages of the source.

Assays:
H2228 = test: Cell viability assay (CellTiter Glo), lung cancer cell line H2228; assay type: cell-based; settings: Homo sapiens, NCI-H2228
Procedure: (§1) Cell viability assay was performed to assess the potency of the compounds in human cancer cell lines KP4 (pancreatic ductal adenocarcinoma), MiaPaCa-2 (pancreatic carcinoma), AsPC-1 (pancreatic adenocarcinoma, ascites), 143B (osteosarcoma), and SJSA-1 (osteosarcoma). Selected compounds were also assayed in a human breast epithelial cell line MCF-10A, a nontumorigenic cell line as a control to assess differential activity. Cells at a density of 500-5,000 cells/well were seeded in 96-well plates and incubated at 37° C. overnight. A series of 9 different concentrations of compound stocks (500×) were created by 3-fold serial dilution in DMSO. These compounds were further diluted in culture media and then added to cells so that the final DMSO concentration was equal to 0.25% or less. After 96 hours of incubation, 50 μL of CellTiter Glo reagent (Promega) was added to each well and luminescence was measured after 10 minutes using EnVision (PerkinElmer). Compounds titrated from top concentration of up to 30 μM. The select compounds were tested initially from 30 μM as the top concentration in duplicates (range of 4.6 nM-30 μM). […] Luminescence from cells treated with DMSO alone was set as Max and % of inhibition was calculated as follows: Inhibition %=(Max-Sample value)/Max*100. Data was analyzed using XL-fit software (ID Business Solutions Ltd.). IC50, relative IC50, or % of top inhibition was calculated.
(§2) A group of selected analogs were further profiled in cell viability assays described above in multiple additional cancer cell lines, including lung cancer, melanoma, hepatocarcinoma, pancreatic cancer, leukemia, lymphoma, ovarian cancer, breast cancer, colon cancer, and sarcoma cell lines. Initial cell seeding numbers were adjusted for each cell line. Typically, 500-5000 cells/well for adherent cells and 5000-10000/well for suspension cells were seeded in 96-well plates.

MiaPaCa-2 = test: Cell viability assay (CellTiter Glo), pancreatic carcinoma MiaPaCa-2; assay type: cell-based; settings: Homo sapiens
Procedure, shortened: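 MiaPaCa-2 and AsPC-1 cells were seeded overnight at 37 °C and exposed for 96 h to 9-point, 3-fold dilutions from up to 30 μM (final DMSO ≤0.25%). CellTiter Glo luminescence was read, and inhibition was calculated relative to DMSO-only cells. IC50, relative IC50 or % top inhibition was derived.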

AsPC-1 = test: Cell viability assay (CellTiter Glo), pancreatic adenocarcinoma AsPC-1; assay type: cell-based; settings: Homo sapiens, ASPC1
Procedure: as §1
(§3) The results of the assay in the pancreatic cell lines are given in Table 15a for PANC1, Table 15b for MiaPaCa-2, and Table 15c for AsPC-1.

143B = test: Cell viability assay (CellTiter Glo), osteosarcoma 143B; assay type: cell-based; settings: Homo sapiens
Procedure, shortened: (§4)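 Cells seeded at 500-5,000/well overnight, then 96 h exposure to 9-point 3-fold dilutions from up to 30 μM (4.6 nM-30 μM), final DMSO ≤0.25%. Viability by CellTiter Glo luminescence; inhibition relative to DMSO-only cells, yielding IC50, relative IC50 or % top inhibition.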

KP4 = test: Cell viability assay (CellTiter Glo), pancreatic ductal adenocarcinoma KP4; assay type: cell-based, human; settings: Homo sapiens, KP-4, Cell Line KP4; read-out: IC50
Procedure, shortened: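 KP4 cells seeded at 1,000–10,000 per well, treated 96 h with 9-point 3-fold dilutions from 30 μM top (4.6 nM–30 μM, duplicates; ≤0.25% DMSO). Viability by CellTiter Glo luminescence; % inhibition relative to DMSO-only wells, giving IC50, relative IC50 or % top inhibition.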

Panc 02.13 = test: Cell proliferation assay, pancreatic cancer cell line Panc 02.13; assay type: cell-based
Procedure: (§5) Cell viability assay was performed to assess the potency of the compounds in human cancer cell lines 786-O (renal cell carcinoma) and SJSA-1 (osteosarcoma). Additional cell lines, such as those described above in Example 4 as well as various others, e.g., pancreatic cancer cell lines (Panc 02.13, BxPC-3, Panc 12, Panc 02.03, Panc 6.03, PSN-1, HPAC, and Capan-1) and prostate cancer cell lines (PC-3, DU145, 22Rv1, NCI-H660, BPH1, LNCaP, BM-1604, and MDA PCa 2b), were tested for select compounds as shown in Table 25.
(§6) The cell proliferation assays for the compounds shown Table 25 was performed according to the protocols described herein, including Examples 4 and 6.

BxPC-3 = test: Cell proliferation assay, pancreatic cancer cell line BxPC-3; assay type: cell-based; settings: Homo sapiens
Procedure: as §5, §6

Panc 12 = test: Cell proliferation assay, pancreatic cancer cell line Panc 12; assay type: cell-based; settings: Cell Line Panc 12
Procedure: as §5, §6

Panc 02.03 = test: Cell proliferation assay, pancreatic cancer cell line Panc 02.03; assay type: cell-based; settings: Homo sapiens
Procedure: as §5, §6

Panc 6.03 = test: Cell proliferation assay, pancreatic cancer cell line Panc 6.03; assay type: cell-based
Procedure: as §5, §6

PSN-1 = test: Cell proliferation assay, pancreatic cancer cell line PSN-1; assay type: cell-based; settings: Homo sapiens, PSN1
Procedure: as §5, §6

HPAC = test: Cell proliferation assay, pancreatic cancer cell line HPAC; assay type: cell-based; settings: Homo sapiens
Procedure: as §5, §6

Capan-1 = test: Cell proliferation assay, pancreatic cancer cell line Capan-1; assay type: cell-based; settings: Homo sapiens
Procedure: as §5, §6

HL-60 = test: Cell viability assay (CellTiter Glo), leukemia cell line HL-60; assay type: cell-based; settings: Homo sapiens, 96 hours
Procedure: as §1, §2
(§7) The results of the assay in the leukemia cell lines are given in Table 16a for MV-4-1 and Table 16b for HL-60 and Kasumi-1.

Kasumi-1 = test: Cell viability assay (CellTiter Glo), leukemia cell line Kasumi-1; assay type: cell-based; settings: Homo sapiens, 96 hours
Procedure: as §1, §2, §7

SJSA-1 = test: Cell viability assay (CellTiter Glo), osteosarcoma SJSA-1; assay type: cell-based; settings: Homo sapiens, 96 hours
Procedure, shortened: as §4

H1299 = test: Cell viability assay (CellTiter Glo), lung cancer cell line H1299; assay type: cell-based; settings: Homo sapiens, NCI-H1299, 96 hours
Procedure: as §1, §2

MDA-MB-435S = test: Cell viability assay (CellTiter Glo), melanoma cell line MDA-MB-435S; assay type: cell-based; settings: Homo sapiens, 96 hours
Procedure: as §1, §2

Huh7 = test: Cell viability assay (CellTiter Glo), hepatocellular carcinoma Huh7; assay type: cell-based; settings: Homo sapiens, Huh-7, 96 hours
Procedure: as §1, §2

PANC1 = test: Cell viability assay (CellTiter Glo), pancreatic cell line PANC1; assay type: cell-based; settings: Homo sapiens, PANC-1, 96 hours
Procedure: as §1, §2, §3

MV-4-1 = test: Cell viability assay (CellTiter Glo), leukemia cell line MV-4-1; assay type: cell-based; settings: 96 hours
Procedure: as §1, §2, §7

REC-1 = test: Cell viability assay (CellTiter Glo), lymphoma cell line REC-1; assay type: cell-based; settings: Homo sapiens, Rec1, 96 hours
Procedure: as §1, §2

Raji = test: Cell viability assay (CellTiter Glo), lymphoma cell line Raji; assay type: cell-based; settings: Homo sapiens, 96 hours
Procedure: as §1, §2

SK-OV-3 = test: Cell viability assay (CellTiter Glo), ovarian cancer cell line SK-OV-3; assay type: cell-based; settings: Homo sapiens, 96 hours
Procedure: as §1, §2

HCC1954 = test: Cell viability assay (CellTiter Glo), breast cancer cell line HCC1954; assay type: cell-based; settings: Homo sapiens, 96 hours
Procedure: as §1, §2

HT29 = test: Cell viability assay (CellTiter Glo), colon cancer cell line HT29; assay type: cell-based; settings: Homo sapiens, HT-29, 96 hours
Procedure: as §1, §2

SW480 = test: Cell viability assay (CellTiter Glo), colon cancer cell line SW480; assay type: cell-based; settings: Homo sapiens, 96 hours
Procedure: as §1, §2

HT-1080 luc2 = test: Cell viability assay (CellTiter Glo), fibrosarcoma HT-1080 luc2; assay type: cell-based; settings: Homo sapiens, fibrosarcoma expressing a luciferase gene, 96 hours, CellTiter Glo, read-out: IC50 HT-1080 luc2
Procedure: as §1, §2
The results of the assay in sarcoma cell lines are given in Table 21a for HT-1080 luc2 (fibrosarcoma expressing a luciferase gene), Table 21b for 143B (osteosarcoma), and Table 21c for SJSA-1 (osteosarcoma).

MCF-10A = test: Cell viability assay (CellTiter Glo), non-tumorigenic breast epithelial cell line MCF-10A; assay type: cell-based; settings: Homo sapiens, 96 hours
Procedure, shortened: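 MCF-10A cells (500-5,000/well) treated 96 h at 37° C with 9-point 3-fold dilutions from up to 30 μM, ≤0.25% DMSO, in duplicate. Viability by CellTiter Glo luminescence; % inhibition versus DMSO-only wells gave IC50, relative IC50 or % top inhibition. Paclitaxel positive control.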

[1] = Pharmacokinetic (PK) studies in Balb/C nude mice via intraperitoneal injection; settings: plasma; for concentration at 0.5 h / concentration at 4 h: Calculated Concentration; for concentration at 0.5 h / concentration at 4 h / Calculated Concentration: IP 15 mg/kg, Balb/C nude mice
Procedure: Test compounds were dissolved either in 20% (w/w) sulfobutylether-β-cyclodextrin (SBECD) pH 3-7 aqueous solution, or 5% DMSO/(30-50%) PEG400/(65-45%) water. Test compound dosing solutions were administered intraperitoneally to Balb/c nude male mice. Blood samples were collected at various time points with EDTA-K2 as anti-coagulant on ice, and centrifuged to obtain plasma samples. The plasma samples were stored at −20° C. until analysis.
Into 10 μL of test compound plasma samples were added 2 μL DMSO then 200 μL of 5 ng/mL internal standard (VTSD) (Terfenadine) in MeOH/acetonitrile. The mixture was vortexed for 1 minute and centrifuged at 4000 rpm for 15 minutes. Calibration standards were prepared by spiking known amount of test compounds into blank plasma samples. The supernatant solution was diluted 5 times with Acetonitrile/H2O (with 0.1% formic acid, 1:1, v/v), and this is the solution for LC-MS/MS analysis. The limit of quantification (LOQ) was 1 ng/mL.
Typical HPLC mobile phases were mobile phase of 5 mM NH4OAc (with 0.05% formic acid); and mobile phase B of acetonitrile (with 0.1% formic acid). The HPLC column was Kinetex C18 (30 mm×3.00 mm). Mass spectrometer was tuned for each compound in the Multiple Reaction Monitoring (MRM) scanning mode and in the electrospray ionization mode. The lower limit of quantification was 1-10 ng.
In this study, K601 (RSL3) was formulated in 5% DMSO/30% PEG 400/65% water at 1.5 mg/mL. The volume of injection via intraperitoneal route was 10 mL/kg for a dose of 15 mg/kg. […] The limit of quantification (LOQ) was 1 ng/mL.
In this study, the compound was formulated in 20% (w/w) sulfobutylether-β-cyclodextrin (SBECD), pH 5 aqueous solution at 1.5 mg/mL. The volume of injection via intraperitoneal route was 10 mL/kg for a dose of 15 mg/kg. The concentration of test compounds in plasma were analyzed by LC-MS with the method described above. The limit of quantification was 1 ng/mL.
It was formulated in 5% DMSO/50% PEG400/45% Water pH adjusted to 4 with HCl as an aqueous solution at 1.0 mg/mL. The volume of injection via intraperitoneal route was 15 mL/kg for a dose of 15 mg/kg. The concentration of test compounds in plasma were analyzed by LC-MS with the method described above. The limit of quantification was 1 ng/mL. […] The limit of quantification was 1 ng/mL.
Compounds 24 and 28 were formulated in 20% (w/w) sulfobutylether-β-cyclodextrin (SBECD) with pH 3 and pH 4, respectively, as an aqueous solution at 1.0 mg/mL. Compound 67 was in 5% DMSO/50% PEG 400/45% water pH 4 (adjusted with 12 N HCl) aqueous solution at 1.0 mg/mL. The injection volume via intraperitoneal route was 10 mL/kg for a dose of 15 mg/kg. The concentration of test compounds in plasma were analyzed by LC-MS with the method described above. The limit of quantification was 1 ng/mL.

[2] = lung cancer cell line, 96 hours, CellTiter Glo, read-out: IC50 H2228
[3] = MIA PaCa-2, pancreatic carcinoma, 96 hours, CellTiter Glo, read-out: IC50 MiaPaCa-2
[4] = pancreatic adenocarcinoma, ascites, 96 hours, CellTiter Glo, read-out: IC50 AsPC-1
[5] = male, Balb/c nude, mouse, ip, 15 mg/kg

SMILES | IC50 (HL-60) | IC50 (Kasumi-1) | IC50 (SJSA-1) | IC50 (H1299) | IC50 (H2228; [2]) | IC50 (MDA-MB-435S) | IC50 (Huh7) | IC50 (PANC1) | IC50 (MiaPaCa-2; [3]) | IC50 (AsPC-1; [4]) | IC50 (MV-4-1) | IC50 (REC-1) | IC50 (Raji) | IC50 (SK-OV-3) | IC50 (HCC1954) | IC50 (HT29) | IC50 (SW480) | IC50 (HT-1080 luc2) | IC50 (MCF-10A) | other results
C[C@H]1Cc2c([nH]c3ccccc23)[C@H](c2ccc(N3CCC3)cc2)N1C(=O)CCl [Compound 239] | – | – | – | – | – | – | – | – | – | – | – | – | – | – | – | – | – | – | – | IC50 (H2228; Cell Line H2228, read-out: IC50): 14.6 nM; IC50 (MiaPaCa-2; Cell Line Mia PaCa-2, read-out: IC50): 259 nM; IC50 (AsPC-1; Cell Line AsPC-1, read-out: IC50): 65.2 nM; IC50 (143B; Cell Line 143B, read-out: IC50): 1120 nM; IC50 (KP4): 4 nM; IC50 (Panc 02.13): 1110 nM; IC50 (BxPC-3): 910 nM; IC50 (Panc 12): 57.8 nM; IC50 (Panc 02.03): 394 nM; IC50 (Panc 6.03): 166 nM; IC50 (PSN-1): 183 nM; IC50 (HPAC): 321 nM; IC50 (Capan-1): > 1000 nM
C[C@H]1Cc2c([nH]c3ccc(F)cc23)[C@H](c2ccc(N3CCOCC3)cc2)N1C(=O)CCl [Example 114] | 120 nM | 145 nM | 115 nM | – | – | – | – | – | – | – | – | – | – | – | – | – | – | – | – | –
COC(=O)[C@H]1Cc2c([nH]c3ccccc23)[C@H](c2ccc(N[C@]34CC5C[C@H](C[C@H](C5)C3)C4)cc2)N1C(=O)CCl [Example 29] | 31 nM | 28 nM | 14 nM | 5 nM | 32 nM | 6 nM | 13 nM | 27 nM | 33 nM | 23 nM | 48 nM | 27 nM | 9 nM | 12 nM | 38 nM | 49 nM | 2000 nM | 5 nM | 410 nM | –
COC(=O)c1ccc([C@H]2c3[nH]c4ccccc4c3C[C@H](C(=O)OC)N2C(=O)CCl)cc1 [Example K601, RSL3, reference compound] | 104 nM | 203 nM | 67 nM | 35 nM | 75 nM | 37 nM | 242 nM | 116 nM | 15 nM | 105 nM | 258 nM | 227 nM | 92 nM | 142 nM | 180 nM | 832 nM | 619 nM | 27 nM | 2950 nM | IC50 (143B; 96 h, osteosarcoma, 96 hours, CellTiter Glo, read-out: IC50 143B): 32 nM; AUC [1, 5]: 1.28 ng·h/mL; AUC(0-t) [1, 5]: 1.28 ng·h/mL; Cmax [1, 5]: 1.33 ng/mL; Tmax [1, 5]: 1.67 h; concentration at 0.5 h ([1]; male, Balb/c nude, mouse, ip, 15 mg/kg, 0.5 h, individual mice): 1.18 ng/mL; concentration at 4 h ([1]; male, Balb/c nude, mouse, ip, 15 mg/kg, 4 h, individual mice): 1.63 ng/mL; concentration at 0.5 h ([1]; male, Balb/c nude, mouse, ip, 15 mg/kg, Mean, 0.5 h, mean of 3 mice): 0.783 ng/mL; concentration at 4 h ([1]; male, Balb/c nude, mouse, ip, 15 mg/kg, Mean, 4 h, mean of 3 mice): 0.543 ng/mL; Calculated Concentration ([1]; 0.5 h, individual mice, 15 mg/kg): BLOQ (BLOQ = Below limit of quantification (which was 1 ng/mL)) and 1.17 ng/mL; Calculated Concentration ([1]; 1 h, individual mice): BLOQ (BLOQ = Below limit of quantification (which was 1 ng/mL)); Calculated Concentration ([1]; 2 h, individual mice): BLOQ (BLOQ = Below limit of quantification (which was 1 ng/mL)); Calculated Concentration ([1]; 4 h, individual mice, 15 mg/kg): BLOQ (BLOQ = Below limit of quantification (which was 1 ng/mL))
